Data: patent US6956043B2, “Pharmaceutical compositions comprising 33-epi-chloro-33-desoxy-ascomycin solid dispersions” (Novartis AG, priority 1995, dated 2005)

Key:
[1] = Dissolution rate test; format: physicochemical; conditions: stirring in 0.2 wt % sodium dodecylsulfate in water at 37° C., 10 mg compound Y, after 30 minutes
Protocol: Forms E, F and G are tested for respective dissolution rates. […] 92% available compound Y is released from Form E. This compares with approximately 5% release after 30 minutes from an equivalent amount of crystalline compound Y.

[2] = Relative bioavailability study in fasted beagle dogs; format: in vivo; conditions: 1 mg/kg, hard gelatin capsules each containing 10 mg compound X
Protocol: Hard gelatin capsules each containing 10 mg compound X were administered to 8 dogs in a 4-way latin square design; the dogs were fed 6 hours post administration of the capsules, and blood levels of compound X were determined over 48 hours.

| SMILES | available compound Y released and dissolved [1] | Median peak levels [2] | median AUC levels of 0-48 hr [2] |
| --- | --- | --- | --- |
| CC[C@@H]1/C=C(\C)C[C@H](C)C[C@H](OC)[C@H]2O[C@@](O)(C(=O)C(=O)N3CCCC[C@H]3C(=O)O[C@H](/C(C)=C/[C@@H]3CC[C@H](Cl)[C@H](OC)C3)[C@H](C)[C@@H](O)CC1=O)[C@H](C)C[C@@H]2OC [crystalline compound Y, 33-epi-chloro-33-desoxy-ascomycin] | approximately 5% |  |  |
| CO[C@H]1C[C@@H]2CC[C@@H](C)[C@@](O)(O2)C(=O)C(=O)N2CCCC[C@H]2C(=O)O[C@H]([C@H](C)C[C@@H]2CC[C@@H](OCCO)[C@H](OC)C2)CC(=O)[C@H](C)/C=C(\C)[C@@H](O)[C@@H](OC)C(=O)[C@H](C)C[C@H](C)/C=C/C=C/C=C/1C [Compound X, 40-O-(2-hydroxy)ethyl rapamycin] |  | 140 ng/mL | ca. 1600 ng.h/ml |
